This is an account of results in the PolyMetriX glass transition set.

`*/C=C(/*)C(CCCCC)[Si](C)(C)C` (repeat unit) returned a glass transition temperature of 170.00 °C.

Turning to `*/C=C(\C#N)C(=O)NC1CCCCC1NC(=O)/C(C#N)=C/c1ccc(/C=C/c2ccc(N(CC)Cc3ccccc3CN(CC)c3ccc(/C=C/c4ccc(*)s4)cc3)cc2)s1` (repeat unit), the glass transition temperature came out at 195.00 °C.

The compound `*/C=C/c1ccc(N(C)CCOC(=O)Nc2ccc(C)c(NC(=O)OCCN(C)c3ccc(/C=C/C4=CC(=C(C#N)C#N)C=C(*)O4)s3)c2)s1` (repeat unit) registered a glass transition temperature of 183.00 °C. Compound `*CC(=O)Nc1ccc(C2(c3ccc(NC(=O)Cn4c(=O)c5cc6c(=O)n(*)c(=O)c6cc5c4=O)cc3)c3ccccc3-c3ccccc32)cc1` (repeat unit) displayed a glass transition temperature of 350.00 °C.

As for `*CCCCCCCCCCCOC(=O)Nc1ccc(NC(=O)OCCCCCCCCCCCOc2ccc(-c3ccc(O*)cc3)cc2)c(C)c1` (repeat unit), the glass transition temperature was 77.00 °C. In the case of `*CCCCCCCCOC(=O)Nc1ccc(NC(=O)OCCCCCCCCOc2ccc(-c3ccc(O*)cc3)cc2)c(C)c1` (repeat unit) it was 81.00 °C; in that of `*CCCCCCOC(=O)Nc1ccc(C)c(NC(=O)O*)c1` (repeat unit), 32.00 °C; in that of `*CCCCCCOP(=O)(/N=N/c1ccc(-c2ccc(/N=N/P(=O)(O*)OC)cc2)cc1)OC` (repeat unit), 37.00 °C. In the case of `*CCCCCCOP(=O)(/N=N/c1ccc(Oc2ccc(/N=N/P(=O)(O*)OC)cc2)cc1)OC` (repeat unit), the glass transition temperature stood at 25.00 °C. With `*CCN(CCOC(=O)NC(C)(C)c1cccc(C(C)(C)NC(=O)O*)c1)c1ccc(/N=N/c2ccc([N+](=O)[O-])cc2)cc1` (repeat unit) the figure was 103.00 °C. In the case of `*CCN(CCOC(=O)NCC1(C)CC(NC(=O)O*)CC(C)(C)C1)c1ccc(C=C(C#N)C#N)cc1` (repeat unit) it was 145.00 °C. In the case of `*CCN(CCOC(=O)c1ccc(C(=O)O*)c(OCCC)c1)c1ccc(C=C(C#N)C#N)cc1` (repeat unit) it was 94.00 °C; in that of `*CCOC(=O)c1cc(C(=O)O*)cc(C(C)(C)C)c1` (repeat unit), 94.00 °C; in that of `*CCOCCOC(=O)C(C)C(=O)O*` (repeat unit), -29.00 °C.

With `*CCOCCOC(=O)C(CCC)C(=O)O*` (repeat unit), the glass transition temperature is -38.00 °C. In the case of `*CCOCCOC(=O)C(CCCCC)C(=O)O*` (repeat unit) it was -47.00 °C; in that of `*CCOP(=O)(/N=N/c1ccc(-c2ccc(/N=N/P(=O)(O*)OCC)cc2)cc1)OCC` (repeat unit), 43.00 °C; in that of `*CCOP(=O)(/N=N/c1ccc(C(=O)c2ccc(/N=N/P(=O)(O*)OCC)cc2)cc1)OCC` (repeat unit), 33.00 °C. In the case of `*Cc1ccccc1CN(CC)c1ccc(/C=C/c2ccc(/C=C(\C#N)C(=O)NC3CCCCC3NC(=O)/C(C#N)=C/c3ccc(/C=C/c4ccc(N(*)CC)cc4)cc3)cc2)cc1` (repeat unit) it was 201.00 °C; in that of `*Cc1ccccc1[Si](*)(C)C` (repeat unit), 48.00 °C; in that of `*Cc1ccccc1[Si](*)(C)c1ccccc1` (repeat unit), 93.80 °C. With `*Cc1ccccc1[Si](*)(c1ccccc1)c1ccccc1` (repeat unit) the figure was 122.00 °C; with `*N(C)[Si](*)(C)C` (repeat unit), -20.00 °C. As to `*N(C)[Si](C)(C=C)N(C)[Si](*)(C)C` (repeat unit), the glass transition temperature was -42.00 °C. As for `*N=P(*)(C)CCCC` (repeat unit), the glass transition temperature is -51.00 °C. In the case of `*N=P(*)(CC1COCCOCCOCCO1)OCC1COCCOCCOCCO1` (repeat unit) it was -40.00 °C; in that of `*Nc1cc([N+](=O)[O-])c(NC(=O)CCCCCCCCCCCCC(*)=O)cc1/C=C/c1ccc(N(C)C)cc1` (repeat unit), 125.00 °C; in that of `*OC(=O)C(C)NC(=O)CCCCC(=O)NC(C)C(=O)OC1COC2C(*)COC12` (repeat unit), 56.00 °C.

In the case of `*OC(=O)C(CC(C)C)NC(=O)CCCCCCCCC(=O)NC(CC(C)C)C(=O)OC1COC2C(*)COC12` (repeat unit), the glass transition temperature stood at 89.00 °C. With `*OC(=O)C(CCSC)NC(=O)CCCCC(=O)NC(CCSC)C(=O)OC1COC2C(*)COC12` (repeat unit) the figure was 71.00 °C; with `*Oc1ccc(-c2ccc(OC(=O)c3cc(OCCCCCC)c(C(*)=O)cc3OCCCCCC)cc2)cc1` (repeat unit), 113.00 °C; with `*Oc1ccc(CC(C#N)(C#N)Cc2ccc(*)cc2)cc1` (repeat unit), 147.00 °C. In the case of `*Oc1ccc(CC(NC(=O)CCc2ccc(OC(=O)CCCCC(*)=O)cc2)C(=O)OCCOCCOCC)cc1` (repeat unit) it was 15.00 °C; in that of `*Oc1ccc(CC(NC(=O)CCc2ccc(OC(=O)CCCCCCC(*)=O)cc2)C(=O)OC(C)C)cc1` (repeat unit), 46.00 °C; in that of `*Oc1ccc(CC(NC(=O)CCc2ccc(OC(=O)CCCCCCC(*)=O)cc2)C(=O)OC)cc1` (repeat unit), 55.50 °C.

In the case of `*Oc1ccc(CC(NC(=O)CCc2ccc(OC(=O)CCCCCCC(*)=O)cc2)C(=O)OCC)cc1` (repeat unit), the glass transition temperature amounted to 50.00 °C.

In the case of `*Oc1ccc(CC(NC(=O)CCc2ccc(OC(=O)CCCCCCC(*)=O)cc2)C(=O)OCCCC)cc1` (repeat unit), the glass transition temperature was found to be 37.00 °C. Turning to `*Oc1ccc(CC(NC(=O)CCc2ccc(OC(=O)CCCCCCCCC(*)=O)cc2)C(=O)OC(C)CC)cc1` (repeat unit), the glass transition temperature is 36.00 °C. In the case of `*Oc1ccc(CC(NC(=O)CCc2ccc(OC(=O)CCCCCCCCC(*)=O)cc2)C(=O)OC)cc1` (repeat unit) it was 47.00 °C; in that of `*Oc1ccc(CC(NC(=O)CCc2ccc(OC(=O)CCCCCCCCC(*)=O)cc2)C(=O)OCC)cc1` (repeat unit), 44.00 °C; in that of `*Oc1ccc(CC(NC(=O)CCc2ccc(OC(=O)CCCCCCCCC(*)=O)cc2)C(=O)OCCCC)cc1` (repeat unit), 30.00 °C. In the case of `*Oc1ccc(CC(NC(=O)CCc2ccc(OC(=O)CCCCCCCCC(*)=O)cc2)C(=O)OCCCCCC)cc1` (repeat unit) it was 22.00 °C; in that of `*Oc1ccc(CC(NC(=O)CCc2ccc(OC(=O)CCCCCCCCC(*)=O)cc2)C(=O)OCCCCCCCCCCCC)cc1` (repeat unit), 12.50 °C; in that of `*Oc1ccc(CC(NC(=O)CCc2ccc(OC(=O)COCC(*)=O)cc2)C(=O)OC)cc1` (repeat unit), 82.00 °C. In the case of `*Oc1ccc(CC(NC(=O)CCc2ccc(OC(=O)COCC(*)=O)cc2)C(=O)OCC(C)C)cc1` (repeat unit) it was 72.00 °C; in that of `*Oc1ccc(CC(NC(=O)CCc2ccc(OC(=O)COCC(*)=O)cc2)C(=O)OCCCC)cc1` (repeat unit), 64.00 °C; in that of `*Oc1ccc(CC(NC(=O)CCc2ccc(OC(=O)COCC(*)=O)cc2)C(=O)OCCCCCC)cc1` (repeat unit), 45.00 °C. As to `*Oc1ccc(CC(NC(=O)CCc2ccc(OC(=O)COCC(*)=O)cc2)C(=O)OCCCCCCCC)cc1` (repeat unit), the glass transition temperature is 40.00 °C. With `*Oc1ccc(CC(NC(=O)CCc2ccc(OC(=O)COCC(*)=O)cc2)C(=O)OCCOCCOCC)cc1` (repeat unit) the figure was 27.00 °C; with `*Oc1ccc(CC(NC(=O)CCc2ccc(OC(=O)COCCOCC(*)=O)cc2)C(=O)OCCCCCCCC)cc1` (repeat unit), 16.00 °C; with `*Oc1ccc(CC(NC(=O)CCc2ccc(OC(=O)COCCOCC(*)=O)cc2)C(=O)OCCOCCOCC)cc1` (repeat unit), 18.00 °C. In the case of `*Oc1ccc(CC(NC(=O)Cc2ccc(OC(=O)CCCCCCCCC(*)=O)cc2)C(=O)OCC)cc1` (repeat unit) it was 43.00 °C; in that of `*Oc1ccc(CC(NC(=O)Cc2ccc(OC(=O)CCCCCCCCC(*)=O)cc2)C(=O)OCCCCCC)cc1` (repeat unit), 23.00 °C; in that of `*Oc1ccc(CC(NC(=O)Cc2ccc(OC(=O)CCCCCCCCC(*)=O)cc2)C(=O)OCCCCCCCC)cc1` (repeat unit), 16.00 °C. On to `*Oc1ccc(CC(NC(=O)Cc2ccc(OC(=O)COCC(*)=O)cc2)C(=O)OCCCCCC)cc1` (repeat unit), for which the glass transition temperature was 46.00 °C. In the case of `*Oc1ccc(CC(NC(=O)Cc2ccc(OC(=O)COCC(*)=O)cc2)C(=O)OCCCCCCCC)cc1` (repeat unit) it was 51.00 °C; in that of `*Oc1ccc(CC2(Cc3ccc(*)cc3)c3ccccc3-c3ccccc32)cc1` (repeat unit), 138.00 °C.

The compound `*Oc1ccc(NC(=O)NC2CC(C)(C)CC(C)(CNC(=O)Nc3ccc(*)c(-c4ccc(Oc5ccccc5)cc4)c3)C2)cc1-c1ccc(Oc2ccccc2)cc1` (repeat unit) returned a glass transition temperature of 281.00 °C. In the case of `*Oc1ccc(NC(=O)NC2CC(C)(C)CC(C)(CNC(=O)Nc3ccc(*)cc3)C2)cc1` (repeat unit) it was 274.00 °C; in that of `*Oc1ccc(NC(=O)Nc2cc(NC(=O)Nc3ccc(*)c(-c4ccc(Oc5ccccc5)cc4)c3)ccc2C)cc1-c1ccc(Oc2ccccc2)cc1` (repeat unit), 279.00 °C. `*Oc1ccc(NC(=O)Nc2cc(NC(=O)Nc3ccc(*)cc3)ccc2C)cc1` (repeat unit) showed a glass transition temperature of 269.00 °C. Regarding `*Oc1ccc(OC(=O)c2ccc(C(*)=O)cc2Sc2ccc(C)cc2)cc1` (repeat unit), the glass transition temperature was 134.00 °C.

Turning to `*c1ccc(/C=N/c2cccc(/N=C/c3ccc(-c4ccc(*)s4)cc3)c2)cc1` (repeat unit), the glass transition temperature came to 150.00 °C.
